Here are results for two compounds from US20080319001A1, “Cancer Treatment Using Specific 3,6,9-Substituted Acridines” (priority 2005, published 2008).

Data set [1] is described as follows: pKa measurement (Sirius GlpKa, potentiometric and UV titration). Type of data set: physicochemical. As to the method:
Pka determination was performed on a Sirius GlpKa instrument equipped with a D-PAS (Dip-Probe Absorption Spectroscopy) attachment. Measurements were made by potentiometric and UV titration in MeOH:H2O mixtures at 25° C. The titration media was ionic strength adjusted with 0.15 M KCl. The values found in the MeOH:H2O mixtures were extrapolated to 0% co-solvent via a Yasuda-Shedlovsky extrapolation. Prediction of pKa values was made using ACD v8.07 software.
BSG01-4.14 from aqueous UV measurement (Potentiometry gave 4.15 although incomplete curves were collected). Other values from potentiometric in Aqueous/MeOH mixtures followed by Yasuda-Shedlovsky extrapolation to 0% MeOH. All pKas basic from slope of extrapolation. P BSG17—Values from potentiometric titrations in Aqueous/MeOH mixtures followed by Yasuda-Shedlovsky extrapolation to 0% MeOH. All pKas basic from slop of extrapolation. PKas 2 and 3 for titration in 30% MeOH removed from YS extrapolation due to precipitation.

The next data set is described as follows: Thermodynamic solubility. It counts as physicochemical. Particulars: for solubility at 24 h: thermodynamic from solid, read-out: Solubility Free Base equivalent. How it is done: Thermodynamic solubility values were determined in each of 0.1M HCl, Deionised water, pH6.8 phosphate buffer, 0.9% saline and 5% dextrose.
1.25-1.5 mg of sample was weighed out into a 1 ml HPLC tube to which 0.25 ml of the dissolution media was added to allow for determination of solubility up to 5 mg/ml. This suspension was then shaken for 24 hours before measurement of the pH, filtration (through a 96 well plate with a glass fibre filter membrane), dilution and analysis of the neat and diluted solutions at different injection volumes on a generic 5 minute HPLC method.
A reference solution was prepared in DMSO for comparison and calculation of the test solubilities. XRPD patterns were measured of remaining solids from experiments where complete dissolution was not achieved.
It is believed the large additional peak noted in the HPLC chromatograms is due to a rotamer of the parent compound. This should therefore be included in the overall peak area assessment. Therefore, the largest and second largest peaks noted in the reference solution were added together as were the same peaks (i.e. the same retention times) in the test sample injections.

For data set [2], the system named is G-quadruplex DNA (F21T oligonucleotide). As to the kind of experiment: FRET DNA melting assay. Particulars: [conc]ΔTm=20 value. Type of data set: binding. As to the method:
The ability of the compounds to stabilise G-quadruplex DNA was investigated using a fluorescence resonance energy transfer (FRET) assay modified to be used as a high-throughput screen in a 96-well format. The labelled oligonucleotide F21T (5′-FAM-dGGG(TTAGGG)-3-TAMRA-3′) used as the FRET probe was diluted from stock to the correct concentration (400 nM) in a 50 mM potassium cacodylate buffer (pH 7.4) and then annealed by heating to 85° C. for 10 min., followed by cooling to room temperature in the heating block.
Compounds were stored as 10 mM stock solutions in DMSO; final solutions (at 2× concentration) were prepared using water or 1M HCl in the initial 1:10 dilution, after which 50 mM potassium cacodylate buffer (pH 7.4) was used in all subsequent steps. 96-well plates (MJ Research, Waltham, Mass.) were prepared by aliquoting 50 μl of the annealed DNA to each well, followed by […] of the compound solutions. Measurements were made on a DNA Engine Opticon (MJ Research) with excitation at 450-495 nm and detection at 515-545 nm. Fluorescence readings were taken at intervals of 0.5° C. over the range 30-100° C., with a constant temperature being maintained for 30 seconds prior to each reading to ensure a stable value. Final analysis of the data was carried out using a script written in the program Origin 7.0 (OriginLab Corp., Northampton, Mass.). […]

The nature of data set [3]: Pharmacokinetic evaluation in mice (plasma kinetics). It counts as in vivo, mouse. The following applies: for AUC(0-t): female, MF1, mouse; for Cmax / clearance / half-life: mouse, female MF1 mice; for half-life: single dose (1 mg/kg iv or 20 mg/kg oral; route not stated with values). How it is done: The test article is identified as BSG17 and has been studied in comparison to BSG01 (BRACO-19). The vials containing bulk test article were stored at room temperature (15-30° C.).
The test compound was reconstituted in 0.9% physiological saline B.P. to the required final concentrations. To ensure the stability of the test formulations, prepared formulations were administered within two hours of preparation.
Treated mice received a single bolus intravenous injection or oral gavage of the test formulations at a dose-volume of […] bodyweight. Control mice were untreated.
The mouse was selected because it is a rodent species and is acceptable to the regulatory authorities for pharmacokinetic studies. Dose levels of 1 mg/kg (intravenous) and 20 mg/kg (oral) were selected for this study.
Female MF1 mice in the weight rang of 26-30 g (6 to 8 weeks of age) were obtained from the BRF Facility, SGHMS/Harlan UK, Bicester and were individually identified using a permanent tail mark (using a non-toxic marker pen). The test article was administered to thirty-six (36) mice after a period of seven (7) days of acclimatisation to the study room.
Blood samples were obtained from three mice per time point and at the time points as specified below:
Blood samples were collected by cardiac puncture with mice held under deep halothane anaesthesia. After sampling mice were euthanased by cervical dislocation.
Samples were collected into pre-heparinised syringes and the samples transferred into 1 ml eppendorf tubes. Plasma was prepared by centrifugation, transferred to clean, labelled eppendorf tubes and frozen at approximately −20° C. pending analysis.
Samples were analysed using HPLC or GC-MS/MS methodology.
Composite plasma concentration time curves were generated over the period of 6-8 hours after the bolus iv or oral dose was administered.

The mark [4] stands for this setting: UV + Pot, 25° C., 0.15 M KCl, read-out: Measured pKa, pKa1.
The mark [5] stands for this setting: potentiometric in aqueous/MeOH, Yasuda-Shedlovsky extrapolation to 0% MeOH, read-out: Measured pKa, pKa2.
The mark [6] stands for this setting: potentiometric in aqueous/MeOH, Yasuda-Shedlovsky extrapolation to 0% MeOH, read-out: Measured pKa, pKa3.
The mark [7] stands for this setting: 0.9% saline, saline or isotonic, 0.9% NaCl, 24 hours.
Setting [8] is: aqueous buffer, pH 6.8 phosphate buffer, 24 hours.
Setting [9] is: deionised water, Water, 24 hours.
Where [10] appears, read: saline or isotonic, 5% Dextrose, 24 hours.
[11] abbreviates: simulated gastric fluid, 0.1M HCl, 24 hours.

Structures are written as SMILES. Read-outs that look alike come from different tables or passages of the source.

Regarding `CN(C)c1ccc(Nc2c3ccc(NC(=O)CCN4CCCC4)cc3nc3cc(NC(=O)CCN4CCCC4)ccc23)cc1` [BSG01], the pKa (commonly the negative logarithm of the acid dissociation constant) in data set [1] (setting [4]) is 4.15; in data set [1] (aqueous UV, read-out: pKa from aqueous UV measurement), 4.14; in data set [1] (setting [5]) it was 8.14; in data set [1] (setting [6]), 9.08; in data set [1] (potentiometric in aqueous/MeOH, Yasuda-Shedlovsky extrapolation to 0% MeOH, read-out: Measured pKa, pKa4), 9.31; in data set [1] (titration medium, ionic strength adjusted with 0.15 M KCl, potentiometry, incomplete curves, read-out: pKa from potentiometry), 4.15. The “PH of unfiltered Saturated solution” value in the data set “Thermodynamic solubility” (0.1M HCl) turned out to be 1.25; in “Thermodynamic solubility” (0.9% NaCl), 9.80; in “Thermodynamic solubility” (5% Dextrose), 8.26; in “Thermodynamic solubility” (Water), 8.66; in “Thermodynamic solubility” (pH 6.8 phosphate buffer), 7.45. Also, the solubility (usually how much of the substance goes into solution per volume) at 24 h in “Thermodynamic solubility” (setting [7]) is below 1 µg/mL; in “Thermodynamic solubility” (setting [8]), 2630 µg/mL; in the data set “Thermodynamic solubility” (setting [9]), below 1 µg/mL; in “Thermodynamic solubility” (setting [10]), 220 µg/mL; in the data set “Thermodynamic solubility” (setting [11]), above 5000 µg/mL. For the same compound, the “Solubility Free Base equivalent” value in the data set “Thermodynamic solubility” (Water, 24 hours) is below 1 µg/mL. This compound also showed an FRET in data set [2] of 0.72 µM. Also, the AUC(0-t) in data set [3] (Table 3) and in data set [3] (unit inferred) was 0.96 µM·h each time. Further, the Cmax (in general, the maximum level reached in the sampled fluid or tissue) in data set [3] worked out at 1900 nM. The clearance (usually the rate of elimination divided by the concentration) in data set [3] is 1 mL/min. Also, the half-life – broadly, the time needed for the level to fall by half in the phase considered – in data set [3] was 1.1 h.

Take `O=C(CCN1CCCC1)Nc1ccc2c(NCc3ccc(F)c(F)c3)c3ccc(NC(=O)CCN4CCCC4)cc3nc2c1` [BSG17, N-(9-(3,4-Difluoro-benzylamino)-6-(3-pyrolidin-1-yl-propionamide)-acridin-3-yl)-3-pyrrolidin-1-yl-propionamide]: the pKa was 8.17 in data set [1] (setting [4]), 9.09 in data set [1] (setting [5]) and 9.61 in data set [1] (setting [6]). Further, the “PH of unfiltered Saturated solution” value was found to be 1.12 in “Thermodynamic solubility” (0.1M HCl); 8.81 in the data set “Thermodynamic solubility” (0.9% NaCl); 7.96 in “Thermodynamic solubility” (5% Dextrose); 8.34 in the data set “Thermodynamic solubility” (Water); 7.49 in the data set “Thermodynamic solubility” (pH 6.8 phosphate buffer). Also, the solubility at 24 h in the data set “Thermodynamic solubility” (setting [7]) is below 1 µg/mL; in the data set “Thermodynamic solubility” (setting [8]), 1950 µg/mL; in the data set “Thermodynamic solubility” (setting [9]), 20 µg/mL; in the data set “Thermodynamic solubility” (setting [10]), 300 µg/mL; in the data set “Thermodynamic solubility” (setting [11]) it was above 5000 µg/mL. The compound also registered an FRET in data set [2] of 0.46 µM. For the same compound, the AUC(0-t) in data set [3] (Table 3) and in data set [3] (unit inferred) was 1.23 µM·h throughout. For the same compound, the maximum concentration (Cmax) in data set [3] came to 1700 nM. In data set [3], this compound had a clearance of 0.667 mL/min. Besides, the half-life in data set [3] was 2.1 h.
